Where a name gives a salt, the structure may show the parent alone.
What was measured:
Walker carcinosarcoma = assay: Antimetastatic activity: life duration of rats with Walker carcinosarcoma; format: in vivo; details: for Life duration, % of the control: Walker carcinosarcoma (rats), 10 days; for increase of the life time: rats, after the removal of Walker carcinoma
Description: (§1) Antimetastatic properties of esters of 2,6-dimethyl-1,4-dihydropyridine-3,5-dicarboxylic acid have been tested on Walker carcinosarcoma, sarcoma 536 and Lewis pneumocarbinoma using mice and rats as test animals. The preparations were administered for 10 days. Two procedures of the administration of these compounds prior to the removal of the primary tumor and introduction of the compound after the removal of the primary tumor. The efficiency of antimetastatic activity of esters of 2,6-dimethyl-1,4-dihydropyridine-3,5-dicarboxylic acid is assessed by the increase of the life duration of the test animals expressed as percentage of the life duration of the animals administered no preparation and serving as the control.
Thus, disodium salt of carboxylatomethyl ester of 2,6-dimethyl-1,4-dihydropyridine-3,5-dicarboxylic acid administered in doses of 50 and 100 mg/kg during the period after the removal of Walker carcinoma increases the life time of the rest rats by 120 and 93% respectively. […] The effect of the compounds is most pronounced in tests with Walker carbinosarcoma on rats; a high efficiency is also noticed for sarcoma 536 with rats; less pronounced is the effect on Lewis lungs carcinoma with mice. The use of esters of 2,6-dimethyl-1,4-dihydropyridine-3,5-dicarboxylic acid provides no negative effect on physiological functions and behaviour of the test animals.

Solubility = format: physicochemical
metastases = details: in words; cited from earlier work
[1] = cited from earlier work
sarcoma 536 = assay: Antimetastatic activity: life duration of rats with sarcoma 536; format: in vivo; details: Sarcoma 536 (rats), 10 days
Description: as §1

Lewis lungs carcinoma = assay: Antimetastatic activity: life duration of mice with Lewis lungs carcinoma; format: in vivo; details: after the removal of the primary tumor, 10 days
Description: as §1

[2] = after the removal of the primary tumor, daily dose 50 mg/kg
[3] = after the removal of the primary tumor, daily dose 150 mg/kg
[4] = before the removal of the primary tumor, daily dose 100 mg/kg

CC1=C(C(=O)OC2CC(C)CCC2C(C)C)CC(C(=O)OC2CC(C)CCC2C(C)C)=C(C)N1 (centres unmarked) [menthyl ester, Menthyl ester of 2,6-dimethyl-1,4-dihydropyridine-3,5-dicarboxylic acid]
Life duration, % of the control (Walker carcinosarcoma; prior to the removal of the primary tumor, daily dose 150 mg/kg): 116%
Life duration, % of the control (Walker carcinosarcoma; prior to the removal of the primary tumor, daily dose 300 mg/kg): 165%
solubility in acetone (Solubility; acetone): highly-soluble
solubility in alcohol (Solubility): highly-soluble
solubility in benzene (Solubility; benzene): highly-soluble
solubility in chloroform (Solubility; chloroform): highly-soluble
solubility in water (Solubility): insoluble in water

CC(CN1CC(=O)NC(=O)C1)N1CC(=O)NC(=O)C1 (racemic) [JCFR-159, (±) 1,2-bis(3,5-dioxopiperazin-1-yl)propane]
antimetastatic activity (metastases): certain antimetastic activity
side effects ([1]; in vivo): causes leucopenia, thrombocytopenia and dyspeptic phenomena
toxicity ([1]; in words): somewhat toxic
LD50 ([1]; species and route not given): 1,000 mg/kg

CC1=C(C(=O)OCC(=O)O)CC(C(=O)OCC(=O)O)=C(C)N1 [disodium carboxylate-methyl ester, disodium salt of carboxylate-methyl ester of 2,6-dimethyl-1,4-dihydropyridine-3,5-dicarboxylic acid]
Life duration, % of the control (Walker carcinosarcoma; [2]): 220%
Life duration, % of the control (Walker carcinosarcoma; after the removal of the primary tumor, daily dose 100 mg/kg): 193%
Life duration, % of the control (Walker carcinosarcoma; [3]): 112%
Life duration, % of the control (Walker carcinosarcoma; before the removal of the primary tumor, daily dose 50 mg/kg): 130%
Life duration, % of the control (Walker carcinosarcoma; [4]): 150%
increase of the life time (Walker carcinosarcoma; 50 mg/kg): 120%
increase of the life time (Walker carcinosarcoma; 100 mg/kg): 93%
Life duration, % of the control (sarcoma 536; [2]): 129%
Life duration, % of the control (sarcoma 536; [3]): 132%
Life duration, % of the control (sarcoma 536; [4]): 152%
Life duration, % of the control (sarcoma 536; before the removal of the primary tumor, daily dose 150 mg/kg): 138%
Life duration, % of the control (Lewis lungs carcinoma; daily dose 100 mg/kg): 120%
Life duration, % of the control (Lewis lungs carcinoma; daily dose 150 mg/kg): 113%
solubility in alcohol (Solubility): sparingly soluble in alcohol
solubility in water (Solubility): highly soluble in water
